In patent publication US9073919B2, “Pyrazolo pyridine derivatives as NADPH oxidase inhibitors” (GENKYOTEX SA, priority 2007, dated 2015):

How the values were obtained:
Format in all cases: cell-based, human
NOX [1] = test: Nitroblue tetrazolium (NBT) superoxide test in cells; details: DPI 10 μM, % of the activity in control cells, 'usually'
Procedure: Human microglia cell line (HMC3, human microglia clone 3) (Janabi et al, 1995, Neurosci Lett 195:105) were cultured in MEM (Eagle's minimum essential medium) containing 10% FBS with 50 U/ml penicillin G sodium 50 μg/ml streptomycin sulfate, and incubated at 37° C. for 24 hours. IFN-γ (human IFN-γ, Roche. 11 040 596 001) was added to the culture medium for a final concentration of 10 ng/ml 24 h, before detection of O2^− formation. […]
Intracellular and extracellular superoxide was measured by a colorimetric technique using a quantitative nitroblue tetrazolium (NBT) test. SOD-inhibitable conversion of NBT to formazan, a fine blue precipitate, in the presence of superoxide anion was measured using Fluostar Optima spectrometer (BMG labtech). […] The absorption was measured at 630 nm. For calculation, the absorbance at 630 nm was normalized for each individual well. […] NOX activities were expressed as % of the activity in control cells. […]

NOX [2] = test: Amplex Red, extracellular hydrogen peroxide, DMSO-differentiated HL60 cells; details: DPI 10 μM, % of the activity in control cells, 'usually'
Procedure: Human acute myeloid leukemia cell line HL-60 was cultured in RPMI 1640 (Invitrogen) supplemented with 10% heat-inactivated calf serum, 2 mM glutamine, 100 U/mL penicillin (Sigma), and 100 μg streptomycin (Sigma) at 37° C. under a humidified atmosphere of 5% CO2. HL60 differentiation to the neutrophil phenotype was triggered by adding Me2SO (final concentration 1.25% v/v for 6 days) to the culture medium.
(§1) Extracellular hydrogen peroxide was measured using Amplex UltraRed (Molecular Probes). Cells were trypsinized (1× Trypsin-EDTA), collected by centrifugation, and resuspended in HBSS supplemented with 1% glucose. Cells were seeded into black 96-well plates at a density of 50,000 cells in 200 μl testing buffer (HBSS 1% glucose containing 0.005 U/mL horseradish peroxidase (Roche) and 50 μM Amplex Red in the presence or absence of compounds according to the invention. As a control, DPI was included at a final concentration of 10 μM The plates were placed in the fluorescent Optima Fluorescent plate reader and kept at 37° C. during 20 min. Fluorescence was measured for […] with excitation and emission wavelengths of 544 nm and 590 nm respectively. NOX activities were expressed as % of the activity in control cells. Residual activity of DPI-treated cells was usually <10%.

NOX [3] = test: H2DCF-DA fluorescence in TGF-β stimulated HUVEC; details: % of the activity in control cells, 'usually'
Procedure: HUVEC are cultured in endothelial basal medium supplemented with hydrocortisone (1 μg/mL, CalbioChem), bovine brain extract (12 μg/mL), gentamicin (50 μg/mL, CalbioChem), amphotericin B (50 ng/mL, CalBioChem EGF (10 ng/mL, and 10% FCS until the fourth passage. When the fifth passage was started, cells were cultured with a lower concentration of FCS (2%) in the absence of EGF, if not indicated otherwise. All experiments were done with cells of the fifth passage. The cells were incubated with OxLDL (oxidized low-density lipoprotein) or its buffer as control for 24 h, before detection of O2^− formation.
HUVEC were plated on coverslips and made quiescent overnight in 0.5% BSA before stimulation with TGF-β. Cells were loaded for 10 minutes with 5 μM CM-H2DCFDA in phenol-red-free medium in the dark and then treated with TGF-β (R&D Systems) in the presence or absence of compounds according to the invention. Cells were then visualized by immunofluorescence microscopy after fixation and staining of the nuclei with DAPI or examined live using confocal microscopy. DCF fluorescence was visualized at an excitation wavelength of 488 nm and emission at 515 to 540 nm. […] For calculation, the absorbance at […] was normalized to absorbance at […] for each individual well. […] NOX activities were expressed as % of the activity in control cells. […]

NOX [4] = test: Chemiluminescence (luminol) ROS measurement in cells; details: % of the activity in control cells, 'usually'
Procedure: as §1
ROS was measured using the chemiluminescent probe luminol. Cells were cultured and plated as for Amplex Red except that the Amplex Red agent was replaced by 10 μg/mL luminol (Sigma 09235). Light emission was recorded continuously at 37° C. for 60 minutes using the luminescence function of the FluoStar Optima fluorescent plate reader. The mean of the four blank values was subtracted from each corrected value for each time point. NOX activities were expressed as % of the activity in control cells. […]

Measured: Residual activity of DPI-treated cells

c1ccc([I+]c2ccccc2)cc1 [DPI, Diphenyl-iodonium]
< 10%: all assays above
